Test [1] concerns Candida albicans. In words: Antifungal activity against Candida albicans MTCC 3017. The test is classed as functional.
Test [2] relates to Candida albicans. In words: Fungicidal activity against Candida albicans MTCC 3017 measured after 24 hrs. The format is functional. The conditions noted are these: MTCC 3017, 24 h.
Test [3] relates to Micrococcus luteus. In words: Antibacterial activity against Micrococcus luteus MTCC 2470 after 24 hrs by agar well diffusion method. The following applies: MTCC 2470, 24 h. The format is functional. A general note: In agar diffusion tests the substance spreads into inoculated agar from a disc or well.
The test system of test [4] is Staphylococcus aureus. In words: Antibacterial activity against Staphylococcus aureus MTCC 96 after 24 hrs by agar well diffusion method. The format is functional. The following applies: MTCC 96, 24 h.
Test [5] deals with Staphylococcus aureus. In words: Antibacterial activity against Staphylococcus aureus MLS-16 MTCC 2940 after 24 hrs by agar well diffusion method. The test is classed as functional. The conditions noted are these: MLS-16 MTCC 2940, 24 h.
In test [6] the test system is Bacillus subtilis. In words: Antibacterial activity against Bacillus subtilis MTCC 121 after 24 hrs by agar well diffusion method. The test is classed as functional. The following applies: MTCC 121, 24 h.
Test [7] concerns Escherichia coli. In words: Antibacterial activity against Escherichia coli MTCC 739 after 24 hrs by agar well diffusion method. The test is classed as functional. The following applies: MTCC 739, 24 h.
For test [8], the system named is Raoultella planticola. In words: Antibacterial activity against Klebsiella planticola MTCC 530 after 24 hrs by agar well diffusion method. The conditions noted are these: MTCC 530, 24 h. The test is classed as functional.
For test [9], the system named is Micrococcus luteus. In words: Bactericidal activity against Micrococcus luteus MTCC 2470 measured after 24 hrs. The test is classed as functional. The conditions noted are these: MTCC 2470, 24 h.
Test [10] has as its system Staphylococcus aureus. In words: Bactericidal activity against Staphylococcus aureus MTCC 96 measured after 24 hrs. The test is classed as functional. The following applies: MTCC 96, 24 h.
Test [11] has as its system Staphylococcus aureus. In words: Bactericidal activity against Staphylococcus aureus MLS-16 MTCC 2940 measured after 24 hrs. The following applies: MLS-16 MTCC 2940, 24 h. The test is classed as functional.
Test [12] relates to Bacillus subtilis. In words: Bactericidal activity against Bacillus subtilis MTCC 121 measured after 24 hrs. The format is functional. The following applies: MTCC 121, 24 h.
In test [13] the test system is Escherichia coli. In words: Bactericidal activity against Escherichia coli MTCC 739 measured after 24 hrs. The test is classed as functional. The conditions noted are these: MTCC 739, 24 h.
The test system of test [14] is Raoultella planticola. In words: Bactericidal activity against Klebsiella planticola MTCC 530 measured after 24 hrs. The format is functional. The following applies: MTCC 530, 24 h.
The subject of another test is Pseudomonas aeruginosa. In words: microbe, parasite or virus in culture. The following applies: MTCC 2453, 24 h.

Converted amounts (≈) assume the structure as drawn.

Description for Pseudomonas aeruginosa: Bactericidal activity against Pseudomonas aeruginosa MTCC 2453 measured after 24 hrs

By MIC is commonly meant the lowest concentration that inhibits growth of the organism. Higher therefore signals weaker potency. For orientation: MFC means the smallest concentration meeting the test's criterion for killing the fungus. Low readings indicate greater fungicidal potency, high ones weaker fungicidal potency. As to `O=C1COc2ccc(Cl)cc2N1Cc1cn(Cc2ccccc2)nn1`, it took 7.8 µg/mL (≈ 22 µM) to inhibit growth in the test with Candida albicans [1] (MIC). For the same compound, the MFC against Candida albicans [2] amounted to 15.6 µg/mL (≈ 44 µM).
On to `O=C(O)c1cn(C2CC2)c2cc(N3CCNCC3)c(F)cc2c1=O` [CIPROFLOXACIN], for which the MIC with Micrococcus luteus [3], in the test with Staphylococcus aureus [4], against Staphylococcus aureus [5], against Bacillus subtilis [6], in the test on Escherichia coli [7] and against Raoultella planticola [8] was 0.9 µg/mL (≈ 2.72 µM) throughout. The MBC in the test on Micrococcus luteus [9], in the test with Staphylococcus aureus [10], against Staphylococcus aureus [11], against Bacillus subtilis [12], against Escherichia coli [13] and in the test on Raoultella planticola [14] was 0.9 µg/mL (≈ 2.72 µM) in each case. Moreover, the MBC with Pseudomonas aeruginosa came out at 0.9 µg/mL (≈ 2.72 µM).
The compound `Clc1ccc(COC(Cn2ccnc2)c2ccc(Cl)cc2Cl)c(Cl)c1` (centres undefined) [MICONAZOLE] returned an MIC in the test on Candida albicans [1] of 7.8 µg/mL (≈ 18.7 µM). In the test on Candida albicans [2], the MFC was 7.8 µg/mL (≈ 18.7 µM).
Regarding `O=C1COc2ccccc2N1Cc1cn(-c2ccccc2)nn1`, the MIC against Staphylococcus aureus [4] and with Raoultella planticola [8] was 3.9 µg/mL (≈ 12.7 µM) throughout. The MBC in the test on Staphylococcus aureus [10] and against Raoultella planticola [14] was 7.8 µg/mL (≈ 25.5 µM) throughout.
As for `O=C1COc2ccccc2N1Cc1cn(Cc2ccccc2)nn1`, the MIC in the test on Staphylococcus aureus [5] amounted to 1.9 µg/mL (≈ 5.93 µM); in the test with Escherichia coli [7], 3.9 µg/mL (≈ 12.2 µM). Further, the MBC was 3.9 µg/mL (≈ 12.2 µM) against Staphylococcus aureus [11] and 7.8 µg/mL (≈ 24.3 µM) in the test on Escherichia coli [13].
Regarding `Cc1ccccc1-n1cc(CN2C(=O)COc3ccccc32)nn1`, the MIC worked out at 3.9 µg/mL (≈ 12.2 µM) against Staphylococcus aureus [5], 3.9 µg/mL (≈ 12.2 µM) against Escherichia coli [7], 3.9 µg/mL (≈ 12.2 µM) against Raoultella planticola [8] and 7.8 µg/mL (≈ 24.3 µM) in the test on Candida albicans [1]. Further, the MBC in the test on Staphylococcus aureus [11], against Escherichia coli [13] and against Raoultella planticola [14] was 7.8 µg/mL (≈ 24.3 µM) in each case. The compound also displayed an MFC against Candida albicans [2] of 15.6 µg/mL (≈ 48.7 µM).
On to `COc1ccc(-n2cc(CN3C(=O)COc4ccccc43)nn2)cc1`, for which the figures for the MIC against Escherichia coli [7] and against Candida albicans [1] were 7.8 µg/mL (≈ 23.2 µM) and 3.9 µg/mL (≈ 11.6 µM), respectively. Also, the MBC in the test on Escherichia coli [13] came out at 15.6 µg/mL (≈ 46.4 µM). The compound further gave an MFC with Candida albicans [2] of 7.8 µg/mL (≈ 23.2 µM).
As for `Cc1ccc(-n2cc(CN3C(=O)COc4ccccc43)nn2)cc1`, the MIC in the test on Staphylococcus aureus [5] stood at 3.9 µg/mL (≈ 12.2 µM); against Escherichia coli [7], 3.9 µg/mL (≈ 12.2 µM); in the test on Raoultella planticola [8] it was 3.9 µg/mL (≈ 12.2 µM); against Candida albicans [1], 7.8 µg/mL (≈ 24.3 µM). For the same compound, the MBC in the test with Staphylococcus aureus [11], with Escherichia coli [13] and in the test on Raoultella planticola [14] was 7.8 µg/mL (≈ 24.3 µM) each time. The MFC against Candida albicans [2] was found to be 15.6 µg/mL (≈ 48.7 µM).
Take `O=C1COc2ccc(Cl)cc2N1Cc1cn(-c2ccc(F)cc2)nn1`: the MIC in the test on Micrococcus luteus [3] was 1.9 µg/mL (≈ 5.3 µM); against Staphylococcus aureus [4], 3.9 µg/mL (≈ 10.9 µM); in the test with Staphylococcus aureus [5], 1.9 µg/mL (≈ 5.3 µM); in the test on Bacillus subtilis [6], 1.9 µg/mL (≈ 5.3 µM); against Escherichia coli [7], 3.9 µg/mL (≈ 10.9 µM); against Raoultella planticola [8], 3.9 µg/mL (≈ 10.9 µM). The compound also showed an MIC in the test with Candida albicans [1] of 7.8 µg/mL (≈ 21.7 µM). In addition, the MBC came to 3.9 µg/mL (≈ 10.9 µM) in the test with Micrococcus luteus [9]; 7.8 µg/mL (≈ 21.7 µM) with Staphylococcus aureus [10]; 3.9 µg/mL (≈ 10.9 µM) against Staphylococcus aureus [11]; 3.9 µg/mL (≈ 10.9 µM) in the test with Bacillus subtilis [12]; 7.8 µg/mL (≈ 21.7 µM) with Escherichia coli [13]; 7.8 µg/mL (≈ 21.7 µM) against Raoultella planticola [14]. The same compound came in with an MFC in the test on Candida albicans [2] of 15.6 µg/mL (≈ 43.5 µM).
In the test with Candida albicans [1], `O=C1COc2ccc(Cl)cc2N1Cc1cn(-c2ccc([N+](=O)[O-])cc2)nn1` came in with a minimal inhibitory concentration (MIC) of 7.8 µg/mL (≈ 20.2 µM). Also, the MFC in the test on Candida albicans [2] is 15.6 µg/mL (≈ 40.4 µM).
On to `COc1ccc(-n2cc(CN3C(=O)COc4ccc(Cl)cc43)nn2)cc1`, for which the values for the MIC against Staphylococcus aureus [5] and against Candida albicans [1] were 1.9 µg/mL (≈ 5.12 µM) and 7.8 µg/mL (≈ 21 µM), respectively. Besides, the MBC against Staphylococcus aureus [11] is 3.9 µg/mL (≈ 10.5 µM). Also, in the test with Candida albicans [2], the MFC turned out to be 15.6 µg/mL (≈ 42.1 µM).
Consider `Cc1ccccc1-n1cc(CN2C(=O)COc3ccc(Cl)cc32)nn1`, for which the MIC with Micrococcus luteus [3] amounted to 1.9 µg/mL (≈ 5.36 µM); against Staphylococcus aureus [4] it was 1.9 µg/mL (≈ 5.36 µM); in the test with Staphylococcus aureus [5], 1.9 µg/mL (≈ 5.36 µM); in the test on Bacillus subtilis [6], 1.9 µg/mL (≈ 5.36 µM); in the test on Escherichia coli [7], 3.9 µg/mL (≈ 11 µM); against Raoultella planticola [8], 3.9 µg/mL (≈ 11 µM). For the same compound, the MIC against Candida albicans [1] worked out at 7.8 µg/mL (≈ 22 µM). In addition, the MBC in the test with Micrococcus luteus [9] is 3.9 µg/mL (≈ 11 µM); with Staphylococcus aureus [10], 3.9 µg/mL (≈ 11 µM); against Staphylococcus aureus [11] it was 3.9 µg/mL (≈ 11 µM); against Bacillus subtilis [12], 3.9 µg/mL (≈ 11 µM); in the test with Escherichia coli [13] it was 7.8 µg/mL (≈ 22 µM); against Raoultella planticola [14], 7.8 µg/mL (≈ 22 µM). The same compound returned an MFC against Candida albicans [2] of 15.6 µg/mL (≈ 44 µM).
With `Cc1ccc(-n2cc(CN3C(=O)COc4ccc(Cl)cc43)nn2)cc1`, the MIC against Micrococcus luteus [3] was 1.9 µg/mL (≈ 5.36 µM); with Staphylococcus aureus [4], 1.9 µg/mL (≈ 5.36 µM); in the test with Staphylococcus aureus [5], 1.9 µg/mL (≈ 5.36 µM); with Bacillus subtilis [6] it was 1.9 µg/mL (≈ 5.36 µM); against Raoultella planticola [8], 3.9 µg/mL (≈ 11 µM); in the test with Candida albicans [1], 7.8 µg/mL (≈ 22 µM). In addition, the MBC against Micrococcus luteus [9] is 3.9 µg/mL (≈ 11 µM); with Staphylococcus aureus [10], 3.9 µg/mL (≈ 11 µM); in the test on Staphylococcus aureus [11], 3.9 µg/mL (≈ 11 µM); in the test with Bacillus subtilis [12], 3.9 µg/mL (≈ 11 µM); against Raoultella planticola [14] it was 7.8 µg/mL (≈ 22 µM). The MFC against Candida albicans [2] is 15.6 µg/mL (≈ 44 µM).
Turning to `O=C1COc2ccccc2N1Cc1cn(-c2ccc(F)cc2)nn1`, the MIC against Escherichia coli [7] came out at 7.8 µg/mL (≈ 24.1 µM); against Candida albicans [1], 3.9 µg/mL (≈ 12 µM). The same compound showed an MBC against Escherichia coli [13] of 15.6 µg/mL (≈ 48.1 µM). The compound also returned an MFC against Candida albicans [2] of 7.8 µg/mL (≈ 24.1 µM).
In turn, `O=C1COc2ccccc2N1Cc1cn(-c2ccc([N+](=O)[O-])cc2)nn1` registered an MIC in the test on Candida albicans [1] of 15.6 µg/mL (≈ 44.4 µM). For the same compound, the MFC against Candida albicans [2] was 31.2 µg/mL (≈ 88.8 µM).
Take `O=C1COc2ccccc2N1Cc1cn(-c2ccc(Cl)cc2)nn1`: the MIC in the test on Candida albicans [1] worked out at 7.8 µg/mL (≈ 22.9 µM). The MFC in the test on Candida albicans [2] turned out to be 15.6 µg/mL (≈ 45.8 µM).
